Test results: ChEMBL document CHEMBL1268861, “Isolation and characterization of diastereomers of discorhabdins H and K and assignment of absolute configuration to discorhabdins D, N, Q, S, T, and U” (J Nat Prod, 2010)
pIC50: −log10 of the molar value.

Test system: P388
Assay: Cytotoxicity against mouse P388 cells
Type: functional, cell-based

| Compound | pIC50 |
| --- | --- |
| Cn1cnc(SC2=CC(=O)C=C3S[C@H]4C[C@@]23C2=C(N4)C(=O)c3[nH]cc4c3C2=NCC4)c1C[C@H](N)C(=O)O [DISCORHABDIN K] | < 5.09 |
| Cn1cnc(SC2=CC(=O)C=C3S[C@@H]4C[C@]23C2=C(N4)C(=O)c3[nH]cc4c3C2=NCC4)c1C[C@H](N)C(=O)O [DISCORHABDIN K2] | < 5.09 |
| Cn1cnc(S[C@H]2[C@H]3C(=O)C=C4S[C@H]5C[C@]42C2=C(N5)C(=O)c4[nH]cc5c4C2=[N+]3CC5)c1C[C@H](N)C(=O)O [DISCORHABDIN H] | < 5.09 |
| Cn1cnc(S[C@@H]2[C@@H]3C(=O)C=C4S[C@@H]5C[C@@]42C2=C(N5)C(=O)c4[nH]cc5c4C2=[N+]3CC5)c1C[C@H](N)C(=O)O [DISCORHABDIN H2] | < 5.09 |
